These results are taken from patent publication US10030020B2, “Spirocycle compounds and methods of making and using same” (Abide Therapeutics, Inc., priority 2016, dated 2018).

Test [1] has as its target T1, FAAH (Mus musculus (Mouse), UniProt O08914). Nature of the test: In vitro competitive activity-based protein profiling (mouse brain membrane fraction or cell lysates), FAAH band. The class given is biochemical. The following applies: mouse proteome; for inhibition at 1 µM: read-out: FAAH % Inh 1 μM (mouse); for IC50: competitive ABPP. The method, boiled down: (§1)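 Residual hydrolase activity was measured as gel band fluorescence after FP-Rh labelling (30 min, 37° C) of proteomes pretreated 30 min at 37° C with inhibitor.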

Test [2] deals with T2, MAGL (Mus musculus (Mouse), UniProt O35678). Nature of the test: In vitro competitive activity-based protein profiling (mouse brain membrane fraction or cell lysates), MAGL band. The following applies: mouse proteome; for inhibition at 1 µM: read-out: MAGL % Inh 1 μM (mouse); for IC50: competitive ABPP. The class given is biochemical. Here is the method: In Vitro Competitive Activity-Based Protein Profiling.
Proteomes (mouse brain membrane fraction or cell lysates) (50 μL, 1.0 mg/mL total protein concentration) were preincubated with varying concentrations of inhibitors at 37° C. After 30 min, FP—Rh (1.0 μL, 50 μM in DMSO) was added and the mixture was incubated for another 30 min at 37° C. Reactions were quenched with SDS loading buffer (50 μL-4×) and run on SDS-PAGE.

Test [3] concerns the target T1, FAAH. Nature of the test: Mouse brain proteomes from inhibitor treated mice (oral gavage, sacrificed 4 h after administration, ABPP analysis), FAAH. Type of test: in vivo, mouse (C57Bl/6J). The following applies: 5 mg/kg oral gavage. In outline: (§2)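 Wild-type C57Bl/6J mice; p.o. gavage, vehicle e.g. PEG400/EtOH/PBS 7/2/1; 5 mg/kg. Brain harvested 4 h post-dose, proteome profiled by ABPP. Read-out: % inhibition.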

For test [4], the target named is T2, MAGL. Nature of the test: Mouse brain proteomes from inhibitor treated mice (oral gavage, sacrificed 4 h after administration, ABPP analysis). Type of test: in vivo, mouse (C57Bl/6J). The following applies: 5 mg/kg oral gavage. In outline:
as §2

Test [5] has as its target T3, ABHD6 (Mus musculus (Mouse), UniProt Q8R2Y0). Nature of the test: In vitro competitive activity-based protein profiling (mouse brain membrane fraction or cell lysates), ABHD6 band. Type of test: biochemical. The following applies: mouse proteome; for inhibition at 1 µM: read-out: ABHD6 % Inh 1 μM (mouse); for IC50: competitive ABPP. In outline:
as §1

The target in test [6] is T3, ABHD6. Nature of the test: Mouse brain proteomes from inhibitor treated mice (oral gavage, sacrificed 4 h after administration, ABPP analysis), ABHD6. The class given is in vivo, mouse (C57Bl/6J). The following applies: 5 mg/kg oral gavage. The method, boiled down: as §2

T3 sequence (Q8R2Y0 whole entry): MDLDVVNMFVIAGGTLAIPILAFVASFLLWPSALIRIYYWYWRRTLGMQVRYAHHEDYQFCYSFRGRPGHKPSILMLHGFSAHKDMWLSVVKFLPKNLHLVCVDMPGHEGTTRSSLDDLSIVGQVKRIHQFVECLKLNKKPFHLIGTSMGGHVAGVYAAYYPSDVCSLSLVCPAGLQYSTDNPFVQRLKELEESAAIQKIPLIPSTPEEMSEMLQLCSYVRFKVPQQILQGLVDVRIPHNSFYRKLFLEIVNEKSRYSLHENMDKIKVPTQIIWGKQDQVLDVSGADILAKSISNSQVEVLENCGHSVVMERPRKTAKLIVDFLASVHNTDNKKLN
T2 sequence (O35678 whole entry): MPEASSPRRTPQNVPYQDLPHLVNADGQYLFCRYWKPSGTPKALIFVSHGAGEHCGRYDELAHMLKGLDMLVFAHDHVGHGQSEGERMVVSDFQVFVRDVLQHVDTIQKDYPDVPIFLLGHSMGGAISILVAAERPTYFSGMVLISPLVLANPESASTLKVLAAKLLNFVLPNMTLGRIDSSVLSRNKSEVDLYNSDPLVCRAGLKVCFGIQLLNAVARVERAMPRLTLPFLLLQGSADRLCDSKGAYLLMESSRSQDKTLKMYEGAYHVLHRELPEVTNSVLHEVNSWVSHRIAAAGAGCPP
T1 sequence (O08914 whole entry): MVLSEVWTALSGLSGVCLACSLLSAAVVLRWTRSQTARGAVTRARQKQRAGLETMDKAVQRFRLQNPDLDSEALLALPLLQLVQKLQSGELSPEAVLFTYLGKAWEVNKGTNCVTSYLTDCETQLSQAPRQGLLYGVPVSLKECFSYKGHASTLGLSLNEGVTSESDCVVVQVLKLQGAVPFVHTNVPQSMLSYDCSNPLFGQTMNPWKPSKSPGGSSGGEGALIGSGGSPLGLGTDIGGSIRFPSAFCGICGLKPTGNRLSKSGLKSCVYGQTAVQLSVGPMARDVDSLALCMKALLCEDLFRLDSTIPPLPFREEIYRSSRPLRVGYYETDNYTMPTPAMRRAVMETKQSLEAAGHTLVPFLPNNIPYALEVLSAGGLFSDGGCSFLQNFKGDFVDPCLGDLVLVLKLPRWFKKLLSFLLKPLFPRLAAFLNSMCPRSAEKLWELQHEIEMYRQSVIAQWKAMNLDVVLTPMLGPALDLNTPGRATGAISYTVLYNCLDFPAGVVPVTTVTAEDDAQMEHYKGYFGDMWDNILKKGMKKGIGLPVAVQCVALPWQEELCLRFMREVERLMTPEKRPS

As usually defined, the IC50 is the concentration that gives 50% inhibition. Higher therefore signals weaker potency in that assay. `O=C(OC(C(F)(F)F)C(F)(F)F)N1CCC2(CCCN2Cc2ccc(Cl)cc2N2CCOCC2)CC1` [Example 77, 1,1,1,3,3,3-Hexafluoropropan-2-yl 1-(4-chloro-2-morpholinobenzyl)-1,8-diazaspiro[4.5]decane-8-carboxylate]: the values for the inhibition at 1 µM in test [1], in test [2] and in test [5] were below 25%, above 75% and below 25%, respectively. The values for the IC50 in test [1], in test [2] and in test [5] were above 1000 nM, below 100 nM and above 1000 nM, respectively. For the same molecule, the “FAAH % Inh 5 mg/kg (mouse)” value in test [3] is “# (# is <25%)”. Moreover, the “MAGL % Inh 5 mg/kg (mouse)” value in test [4] is listed as “### (### is ≥75%)”. Also, the “ABHD6 % Inh 5 mg/kg (mouse)” value in test [6] was “# (# is <25%)”.
Turning to `O=C(OC(C(F)(F)F)C(F)(F)F)N1CCC2(CCCN2Cc2ccc(C(F)(F)F)cc2N2CCCCC2)CC1` [Example 78, 1,1,1,3,3,3-Hexafluoropropan-2-yl 1-(2-(piperidin-1-yl)-4-(trifluoromethyl)benzyl)-1,8-diazaspiro[4.5]decane-8-carboxylate], the inhibition at 1 µM in test [1] was below 25%; in test [2], above 75%; in test [5] it was below 25%. Besides, the IC50 in test [1] was above 1000 nM; in test [2] it was below 100 nM; in test [5], above 1000 nM. Also, the “FAAH % Inh 5 mg/kg (mouse)” value in test [3] is recorded as “# (# is <25%)”. Also, the “MAGL % Inh 5 mg/kg (mouse)” value in test [4] is “## (## is equal to or greater than 25% but less than 75%)”. For the same molecule, in test [6], the “ABHD6 % Inh 5 mg/kg (mouse)” value is listed as “# (# is <25%)”.
Consider `O=C(OC(C(F)(F)F)C(F)(F)F)N1CCC2(CCCN2Cc2cccc(N3CCOCC3)c2Cl)CC1` [Example 79, 1,1,1,3,3,3-Hexafluoropropan-2-yl 1-(2-chloro-3-morpholinobenzyl)-1,8-diazaspiro[4.5]decane-8-carboxylate], for which the inhibition at 1 µM in test [1] was below 25%; in test [2], above 75%; in test [5], below 25%. Also, the IC50 in test [1] is above 1000 nM; in test [2], below 100 nM; in test [5], above 1000 nM. Besides, in test [3], the “FAAH % Inh 5 mg/kg (mouse)” value is reported as “# (# is <25%)”. The “MAGL % Inh 5 mg/kg (mouse)” value in test [4] is on record as “### (### is ≥75%)”. Besides, in test [6], the “ABHD6 % Inh 5 mg/kg (mouse)” value is on record as “# (# is <25%)”.
`O=C(OC(C(F)(F)F)C(F)(F)F)N1CCC2(CCCN2Cc2cccc(N3CCCCC3)c2Cl)CC1` [Example 80, 1,1,1,3,3,3-Hexafluoropropan-2-yl 1-(2-chloro-3-(piperidin-1-yl)benzyl)-1,8-diazaspiro[4.5]decane-8-carboxylate]: the inhibition at 1 µM was below 25% in test [1], above 75% in test [2] and below 25% in test [5]. For the same molecule, the results for the IC50 in test [1], in test [2] and in test [5] were above 1000 nM, below 100 nM and above 1000 nM, respectively. In test [3], the “FAAH % Inh 5 mg/kg (mouse)” value is “## (## is equal to or greater than 25% but less than 75%)”. Also, the “MAGL % Inh 5 mg/kg (mouse)” value in test [4] was “### (### is ≥75%)”. For the same molecule, the “ABHD6 % Inh 5 mg/kg (mouse)” value in test [6] is reported as “## (## is equal to or greater than 25% but less than 75%)”.
As to `O=C(OC(C(F)(F)F)C(F)(F)F)N1CCC2(CCCN2Cc2cccc(N3CCCC3)c2Cl)CC1` [Example 81, 1,1,1,3,3,3-Hexafluoropropan-2-yl 1-(2-chloro-3-(pyrrolidin-1-yl)benzyl)-1,8-diazaspiro[4.5]decane-8-carboxylate], the inhibition at 1 µM in test [1] was below 25%; in test [2], above 75%; in test [5], below 25%. Besides, the IC50 was above 1000 nM in test [1], below 100 nM in test [2] and above 1000 nM in test [5]. The “FAAH % Inh 5 mg/kg (mouse)” value in test [3] is listed as “# (# is <25%)”. For the same molecule, the “MAGL % Inh 5 mg/kg (mouse)” value in test [4] is listed as “### (### is ≥75%)”. Moreover, in test [6], the “ABHD6 % Inh 5 mg/kg (mouse)” value is “# (# is <25%)”.
As for `O=C(OC(C(F)(F)F)C(F)(F)F)N1CCC2(CCCN2Cc2cccc(N3CC4CCC(C3)O4)c2Cl)CC1` [Example 82, 1,1,1,3,3,3-Hexafluoropropan-2-yl 1-(3-(8-oxa-3-azabicyclo[3.2.1]octan-3-yl)-2-chlorobenzyl)-1,8-diazaspiro[4.5]decane-8-carboxylate], the inhibition at 1 µM in test [1] was below 25%; in test [2], above 75%; in test [5] it was below 25%. In addition, the IC50 in test [1] was above 1000 nM; in test [2] it was below 100 nM; in test [5], above 1000 nM. Moreover, the “FAAH % Inh 5 mg/kg (mouse)” value in test [3] is “# (# is <25%)”. The “MAGL % Inh 5 mg/kg (mouse)” value in test [4] was “### (### is ≥75%)”. The “ABHD6 % Inh 5 mg/kg (mouse)” value in test [6] is on record as “# (# is <25%)”.
For `Cc1c(CN2CCCC23CCN(C(=O)OC(C(F)(F)F)C(F)(F)F)CC3)cccc1N1CCCCC1` [Example 84, 1,1,1,3,3,3-Hexafluoropropan-2-yl 1-(2-methyl-3-(piperidin-1-yl)benzyl)-1,8-diazaspiro[4.5]decane-8-carboxylate], the inhibition at 1 µM in test [1] was below 25%; in test [2], above 75%; in test [5] it was below 25%. In addition, the IC50 in test [1] was above 1000 nM; in test [2] it was 100 to 1000 nM; in test [5], above 1000 nM. Further, the “FAAH % Inh 5 mg/kg (mouse)” value in test [3] is given as “# (# is <25%)”. Further, the “MAGL % Inh 5 mg/kg (mouse)” value in test [4] is “### (### is ≥75%)”. Further, the “ABHD6 % Inh 5 mg/kg (mouse)” value in test [6] is recorded as “# (# is <25%)”.
On to `Cc1c(CN2CCCC23CCN(C(=O)OC(C(F)(F)F)C(F)(F)F)CC3)cccc1N1CCCC1` [Example 85, 1,1,1,3,3,3-Hexafluoropropan-2-yl 1-(2-methyl-3-(pyrrolidin-1-yl)benzyl)-1,8-diazaspiro[4.5]decane-8-carboxylate], for which the inhibition at 1 µM was below 25% in test [1], above 75% in test [2] and below 25% in test [5]. Besides, the half-inhibitory concentration (IC50) was above 1000 nM in test [1], below 100 nM in test [2] and above 1000 nM in test [5]. Further, in test [3], the “FAAH % Inh 5 mg/kg (mouse)” value was “# (# is <25%)”. Further, in test [4], the “MAGL % Inh 5 mg/kg (mouse)” value is given as “### (### is ≥75%)”. Besides, the “ABHD6 % Inh 5 mg/kg (mouse)” value in test [6] was “# (# is <25%)”.
As for `Cc1c(CN2CCCC23CCN(C(=O)OC(C(F)(F)F)C(F)(F)F)CC3)cccc1N1CC2CCC(C1)O2` [Example 86, 1,1,1,3,3,3-Hexafluoropropan-2-yl 1-(3-(8-oxa-3-azabicyclo[3.2.1]octan-3-yl)-2-methylbenzyl)-1,8-diazaspiro[4.5]decane-8-carboxylate], the figures for the inhibition at 1 µM in test [1], in test [2] and in test [5] were below 25%, above 75% and below 25%, respectively. Besides, the IC50 was above 1000 nM in test [1], below 100 nM in test [2] and above 1000 nM in test [5]. For the same molecule, in test [3], the “FAAH % Inh 5 mg/kg (mouse)” value was “# (# is <25%)”. Also, the “MAGL % Inh 5 mg/kg (mouse)” value in test [4] is on record as “### (### is ≥75%)”. Also, the “ABHD6 % Inh 5 mg/kg (mouse)” value in test [6] was “# (# is <25%)”.
As for `CCN1CCN(c2cc(C(F)(F)F)ccc2CN2CCCC23CCN(C(=O)OC(C(F)(F)F)C(F)(F)F)CC3)CC1` [Example 87, 1,1,1,3,3,3-Hexafluoropropan-2-yl 1-(2-(4-ethylpiperazin-1-yl)-4-(trifluoromethyl)benzyl)-1,8-diazaspiro[4.5]decane-8-carboxylate], the inhibition at 1 µM in test [1] was below 25%; in test [2] it was above 75%; in test [5], below 25%. Moreover, the IC50 was above 1000 nM in test [1], below 100 nM in test [2] and above 1000 nM in test [5]. In test [3], the “FAAH % Inh 5 mg/kg (mouse)” value is reported as “# (# is <25%)”. For the same molecule, in test [4], the “MAGL % Inh 5 mg/kg (mouse)” value is on record as “## (## is equal to or greater than 25% but less than 75%)”. Moreover, the “ABHD6 % Inh 5 mg/kg (mouse)” value in test [6] is “# (# is <25%)”.
As for `CC(=O)N1CCN(c2cc(C(F)(F)F)ccc2CN2CCCC23CCN(C(=O)OC(C(F)(F)F)C(F)(F)F)CC3)CC1` [Example 88, 1,1,1,3,3,3-Hexafluoropropan-2-yl 1-(2-(4-acetylpiperazin-1-yl)-4-(trifluoromethyl)benzyl)-1,8-diazaspiro[4.5]decane-8-carboxylate], the inhibition at 1 µM was below 25% in test [1], above 75% in test [2] and below 25% in test [5]. The half-inhibitory concentration (IC50) in test [1] was above 1000 nM; in test [2] it was below 100 nM; in test [5], above 1000 nM. Also, the “FAAH % Inh 5 mg/kg (mouse)” value in test [3] was “# (# is <25%)”. Further, in test [4], the “MAGL % Inh 5 mg/kg (mouse)” value is given as “## (## is equal to or greater than 25% but less than 75%)”. Further, the “ABHD6 % Inh 5 mg/kg (mouse)” value in test [6] is “# (# is <25%)”.
`CS(=O)(=O)N1CCN(c2cc(C(F)(F)F)ccc2CN2CCCC23CCN(C(=O)OC(C(F)(F)F)C(F)(F)F)CC3)CC1` [Example 89, 1,1,1,3,3,3-Hexafluoropropan-2-yl 1-(2-(4-(methylsulfonyl)piperazin-1-yl)-4-(trifluoromethyl)benzyl)-1,8-diazaspiro[4.5]decane-8-carboxylate]: the inhibition at 1 µM was below 25% in test [1], above 75% in test [2] and below 25% in test [5]. Besides, the IC50 in test [1] was above 1000 nM; in test [2] it was below 100 nM; in test [5], above 1000 nM. For the same molecule, the “FAAH % Inh 5 mg/kg (mouse)” value in test [3] is recorded as “# (# is <25%)”. Moreover, the “MAGL % Inh 5 mg/kg (mouse)” value in test [4] is recorded as “# (# is <25%)”. In addition, the “ABHD6 % Inh 5 mg/kg (mouse)” value in test [6] is “# (# is <25%)”.
